Assay results published in patent US20060276393A1, “Novel compositions for preventing and treating neurodegenerative and blood coagulation disorders” (Sirtris Pharmaceuticals, Inc., priority 2005, published 2006).
Each block holds one compound with its values, some of them ahead of it.

Tests used:
S. cerevisiae = experiment: Yeast replicative lifespan; format: cell-based
Protocol: Average lifespan for wild type, 22.9 generations, quercetin, 23.4; piceatannol. […]
All yeast strains were grown at 30° C. in complete yeast extract/bactopeptone, 2.0% (w/v) glucose (YPD) medium except where stated otherwise. Calorie restriction was induced in 0.5% glucose. Synthetic complete (SC) medium consisted of 1.67% yeast nitrogen base, 2% glucose, 40 mg/litre each of auxotrophic markers. SIR2 was integrated in extra copy and disrupted as described^5. Other strains are described elsewhere^26. For cellular deacetylation assays, HeLa S3 cells were used. U20S osteosarcoma and human embryonic kidney (HEK 293) cells were cultured adherently in Dulbecco's Modified Eagle's Medium (DMEM) containing 10% fetal calf serum (FCS) with 1.0% glutamine and 1.0% penecillin/streptomycin. HEK 293 overexpressing dominant negative SIRT1 H363Y was a gift of R. Frye (U. Pittsburgh).
Lifespan measurements were performed using PSY316AT MATα as previously described^35. All compounds for lifespan analyses were dissolved in 95% ethanol and plates were dried and used within 24 hours. Prior to lifespan analysis, cells were pre-incubated on their respective media for at least 15 hours. Following transfer to a new plate, cells were equilibrated on the medium for a minimum of 4 hours prior to micro-manipulating them. At least 30 cells were examined per experiment and each experiment was performed at least twice. Statistical significance of lifespan differences was determined using the Wilcoxon rank sum test. Differences are stated to be significant when the confidence is higher than 95%.

HeLa S3 cells = experiment: Cellular deacetylase assay (FdL, TSA-insensitive signal); format: cell-based, human; settings: 500 μM compound, 200 μM FdL, 1 μM TSA, 1 hour
Protocol: FdL (200 μM) is added to growth media and cells incubated for 1-3 hours to allow FdL to enter the cells and the lysine-deacetylated product (deAc-FdL) to accumulate intracellularly. Cells are lysed with detergent in the presence of 1 μM TSA, 1 mM nicotinamide. Addition of the non-cell-permeable Developer (BIOMOL) releases a fluorophor, specifically from deAc-FdL. b, SIRT1 activating polyphenols can stimulate TSA-insensitive, FdL deacetylation by HeLa S3 cells. Cells were grown adherently in DMEM/10% FCS and treated for 1 hour with 200 μM FdL, 1 μM TSA and either vehicle (0.5% final DMSO, Control) or 500 μM of the indicated compound. Intracellular accumulation of deAc-FdL was then determined as described briefly in a. […] Lysates were prepared and analyzed as above. […]
Themed compound libraries (BIOMOL) were used for primary and secondary screening. […] In vitro fluorescence assay results were read in white ½-volume 96-well microplates (Coming Costar 3693) with a CytoFluor™. II fluorescence plate reader (PerSeptive Biosystems, Ex. 360 nm, Em. 460 nm, gain=85). HeLa cells were grown and the cellular deacetylation assays were performed and read, as above, but in full-volume 96-well microplates (Coming Costar 3595). […]

recombinant human SIRT1 = biological target: T1, recombinant human SIRT1 (Homo sapiens, UniProt Q96EB6); experiment: SIRT1 fluorescent deacetylation assay (p53-382 acetylated peptide); format: biochemical; settings: 25 μM NAD+, 25 μM p53-382 acetylated peptide, compounds at 100 μM
T1 sequence (Q96EB6 1-747): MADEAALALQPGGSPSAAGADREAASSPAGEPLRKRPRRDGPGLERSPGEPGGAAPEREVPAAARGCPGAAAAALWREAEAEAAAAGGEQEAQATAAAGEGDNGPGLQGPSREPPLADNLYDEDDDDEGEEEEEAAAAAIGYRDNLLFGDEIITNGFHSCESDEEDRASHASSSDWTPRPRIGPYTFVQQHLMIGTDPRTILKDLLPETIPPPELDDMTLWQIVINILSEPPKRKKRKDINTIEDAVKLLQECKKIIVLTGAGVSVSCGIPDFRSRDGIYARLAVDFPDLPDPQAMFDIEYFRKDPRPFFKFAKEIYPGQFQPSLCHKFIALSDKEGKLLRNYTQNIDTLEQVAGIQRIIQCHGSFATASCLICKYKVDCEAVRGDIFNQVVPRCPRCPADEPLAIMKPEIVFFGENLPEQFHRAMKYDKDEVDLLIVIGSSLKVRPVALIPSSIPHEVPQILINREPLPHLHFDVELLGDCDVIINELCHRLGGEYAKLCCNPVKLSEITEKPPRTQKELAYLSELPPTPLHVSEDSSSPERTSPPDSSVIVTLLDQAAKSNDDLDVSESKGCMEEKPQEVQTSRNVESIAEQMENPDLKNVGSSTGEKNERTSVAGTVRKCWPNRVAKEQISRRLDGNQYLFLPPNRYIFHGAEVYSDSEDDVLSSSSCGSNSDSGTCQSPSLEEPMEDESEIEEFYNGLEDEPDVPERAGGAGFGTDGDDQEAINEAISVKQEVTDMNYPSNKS
Text: Lines represent non-linear least-squares fits to the Michaelis-Menten equation. […] Lines represent non-linear least-squares fits to the Michaelis-Menten equation. […] Error bars are standard errors of the mean.
To identify compounds that modulate SIRT1 activity, a number of small molecule libraries were screened using a fluorescent deacetylation assay in 96-well plates^26. The substrate used in the assay was a fluorogenic peptide based on the sequence encompassing the p53-K382 acetylation site, a known target of SIRT1 in vivo^20,21,27. […] The small molecule libraries included analogues of nicotinamide, ε-acetyl lysine, NAD^+, nucleotides, nucleotide analogues and purinergic ligands.
His6-tagged recombinant SIRT1 and GST-tagged recombinant Sir2 were prepared as previously described^26. From 0.1 to 1 μg of SIRT1 and 1.5 μg of Sir2 were used per deacetylation assay (in 50 μl total reaction) as previously described^26.
Themed compound libraries (BIOMOL) were used for primary and secondary screening. Most polyphenol compounds were dissolved at 10 mM in dimethylsulfoxide (DMSO) on the day of the assay. For water soluble compounds and negative controls, 1% v/v DMSO was added to the assay. […] Unless otherwise indicated all initial rate measurements were means of three or more replicates, obtained with single incubation times, at which point 5% or less of the substrate initially present had been deacetylated. Calculation of net fluorescence increases included subtraction of a blank value, which in the case of Sir2 was obtained by omitting the enzyme from the reaction and in the case of SIRT1 by adding an inhibitor (200 μM suramin or 1 mM nicotinamide) to the reaction prior to the acetylated substrate. […] All error bars represent the standard error of the mean.

C. elegans = C. elegans lifespan; format: in vivo; settings: N2 worms, E. coli as food
Protocol: Thus, the presence of resveratrol in the growth media of C. elegans extends their lifespan.
Bristol N2 (Caenorhabditis Genetics Center) was used as the wild-type strain. The sir-2.1 mutant strain was generated by backcrossing VC199 (sir-2.1(ok434)) to N2 four times. Cultures were grown on standard NGM media and maintained on E. coli strain OP50. For the lifespan assays, synchronized animals were transferred to treatment plates as young adults (2 d after hatching, day 0 of assay), and were transferred to fresh treatment plates every 2 days for the first 6 to 8 days of the assay. […] For some lifespan trials, heat-killed OP50 were used as a food source. OP50 cultures were heated to 65° C. for 30 minutes, then pelleted and resuspended in 1/10 volume in S Basal supplemented with 10 mM MgSO4. In all assays, worms were monitored daily for mortality by gently probing with a platinum pick. Assays were performed at 24° C. To assay worm feeding rates, worms at the indicated stages were placed on treatment plates (no FUdR) for 4-5 hours, then videoed for 1 minute using a Pixelink PL-662 camera. The frame rate was slowed and the pumping rate of the pharynx was counted. To assay fecundity, gravid hermaphrodites (5 per plate, raised from synchronized L1s on normal or treatment plates) were allowed to lay eggs on their respective media for 5 hours, and the total number of eggs was counted.

[1] = biological target: T2, SIRT1 deacetylase (BIOMOL) (Homo sapiens, UniProt Q96EB6); experiment: High-throughput SIRT1 screening protocol (ICCB library); format: biochemical; settings: positive controls; 200 μM NAD+, 5 μM Fluor de Lys-SIRT1; resveratrol 50 μM
T2 construct: purchased BIOMOL
T2 sequence (Q96EB6 1-747): T1 sequence (Q96EB6 1-747)
Protocol: The reaction mixture contains (final): 0.5 units/reaction SIRT1 deacetylase (BIOMOL); 200 μM NAD^+; 5 μM Fluor de Lys-SIRT1 substrate (BIOMOL); buffer (25 mM Tris/Cl, pH 8.0, 137 mM NaCl, 2.7 mM KCl, 1 mM MgCl2, and 1 mg/ml BSA). In addition, a reaction mixture containing no enzyme was made so that each well receiving compound has a corresponding “no enzyme control” well. Reactions were performed in black 384 well plates (NUNC) in a final volume of 25 μl/well.
The reactions were started by combining enzyme and substrate in a reaction mixture immediately prior to aliquoting in plates (or substrate only for “no enzyme control” plates). Mixture were aliquoted to plates using Biotek μfill (Biotek Instruments). Control mixtures were manually added to designated wells. A library compound was added at a desired concentration by pin transfer to both “with enzyme” and “no enzyme” plates. Compounds were added in at least triplicate (with enzyme reaction in duplicate and no enzyme controls) at a final concentration of roughly 50 μM. The plates were incubated at 37° C for 30-60 minutes. Then 25 μl of 1× Developer II (BIOMOL) plus 2 mM nicotinamide were added to all wells to stop the reactions. The reactions were left for at least 30 minutes at 37° C. for the signal to develop. The plates were read in a microplate-reading fluorometer capable of excitation at a wavelength in the range of 350-380 nm and detection of emitted light in the range of 440-460 nm. A read time of 0.1 sec per well was used.

[2] = test system: thoracic spinal cord of EAE SJL/J mice; experiment: EAE spinal cord white matter damage; format: in vivo, mouse; settings: FK506 5 mg/kg, significant
Text: At day 40 post-immunization, mice from each group are sacrificed with an overdose of ketamine/xylazine. Spinal cords are dissected, fixed in 10% buffered formalin, and embedded in paraffin. Five micron thick sections are stained with Hematoxylin and Eosin (H&E) and Luxol Fast Blue (LFB) to assess myelin loss. Bielshowesky's silver impregnation is used to evaluate axonal integrity. To asses the amount of axonal loss, paraffin sections are exposed to monoclonal antibodies against mouse non-phosphorylated neurofilament H (Clone SMI-32, Stemberger Monoclonals, Baltimore, USA) and monoclonal antibodies against APP (Clone 22C11, Chemicon). SMI-32 is detected with a Cy3-labeled antibody and visualized by fluorescence microscopy. Anti-APP antibodies are detected by incubation with ColonoPAP, and APP-positive axons are visualized with 3,3′-diaminobenzidine (DAB).
The percentage of the spinal cord showing damage was determined in the cervical, thoracic and lumbar cord. At each level, regions in the 1) dorsal columns and 2) the lateral and ventral white matter tracts containing damaged fibers was circumscribed on photomontages (final magnification ×100) of the entire spinal cord. Damaged areas in each of the two regions were measured using a SummaSketch III (Summagraphics, Seymour, Conn.) digitizing tablet and BIOQUANT Classic 95 software (R&M Biometrics, Nashville, Tenn.). Measurements were also be made of the total area (damaged and nondamaged) of the 1) dorsal columns and 2) the lateral and ventral columns. For each section (one section per animal), the cumulative percent lesion areas were calculated for each region (dorsal column, lateral and ventral columns).

[3] = test system: Experimental autoimmune encephalomyelitis (EAE) in SJL/J mice; settings: FK506 5 mg/kg/day
[4] = biological target: p53-382 acetylated peptide (human) (UniProt P04637)

Compound: O=C(/C=C/c1ccc(O)c(O)c1)c1ccc(O)cc1O [butein, 3,4,2′,4′-Tetrahydroxychalcone]
increase of average lifespan (S. cerevisiae; 10 μM): 31%
maximum lifespan (in words) (S. cerevisiae; 10 μM): significantly increased maximum lifespan
Average lifespan (S. cerevisiae; 10 μM compound, 2% glucose medium, wild type untreated 22.9): 35.5 generations
TSA-insensitive cellular deacetylation signal (HeLa S3 cells): no effect on the cellular signal

Compound: COc1ccc(/C=C/c2cc(O)cc(O)c2)cc1 [BML-233, 3,5-Dihydroxy-4′-methoxy-trans-stilbene]
SIRT1 stimulating activity (in words) (recombinant human SIRT1): strong activator of sirtuins
% change in C. elegans lifespan relative to untreated organisms (C. elegans; (10)): 70%
% change in C. elegans lifespan relative to untreated organisms (C. elegans; (500)): 50%
activated SIRT1 [1]: 2.1 fold

Compound: C=CC[C@@H]1/C=C(\C)C[C@H](C)C[C@H](OC)[C@H]2O[C@@](O)(C(=O)C(=O)N3CCCC[C@H]3C(=O)O[C@H](/C(C)=C/[C@@H]3CC[C@@H](O)[C@H](OC)C3)[C@H](C)[C@@H](O)CC1=O)[C@H](C)C[C@@H]2OC [FK506]
reduction of extent of damage in dorsal, lateral and ventral white matter [2]: over 90%
Mean EAE Score - Last 10 Days ([3]; vehicle 23.00): 7.75
Mean total EAE score ([3]; vehicle 72.38): 25.38

Km for the acetylated peptide (initial deacetylation rate, fluorescence) [4]: 64 µM
Compound: His6-tagged recombinant SIRT1 (enzyme)
